Measured values taken from ChEMBL document CHEMBL1201862, “PubChem BioAssay data set” (2004).
Calls of active or inactive are those of the source.

Tests used:
[1] = target: Lysosomal acid glucosylceramidase (Homo sapiens, UniProt P04062); test: Dose response cell-based high throughput screening assay to identify enhancers of beta-glucosidase activity. [Related pubchem assays: 784 ]; format: functional
[2] = target: T1, Insulin-degrading enzyme (Homo sapiens, UniProt P14735); test: Dose Response: Fluorescence polarization-based cell-based high throughput dose response assay for inhibitors of insulin-degrading enzyme (IDE). [Related pubchem assays: 434962 (Primary screen (IDE inhibitors in singlicate)), 449730 (Counterscreen (Cytotoxicity in triplicate)), 435028 (Confirmation (IDE inhibitors in triplicate)), 434984 (Summary …; format: functional
T1 sequence (P14735 whole entry): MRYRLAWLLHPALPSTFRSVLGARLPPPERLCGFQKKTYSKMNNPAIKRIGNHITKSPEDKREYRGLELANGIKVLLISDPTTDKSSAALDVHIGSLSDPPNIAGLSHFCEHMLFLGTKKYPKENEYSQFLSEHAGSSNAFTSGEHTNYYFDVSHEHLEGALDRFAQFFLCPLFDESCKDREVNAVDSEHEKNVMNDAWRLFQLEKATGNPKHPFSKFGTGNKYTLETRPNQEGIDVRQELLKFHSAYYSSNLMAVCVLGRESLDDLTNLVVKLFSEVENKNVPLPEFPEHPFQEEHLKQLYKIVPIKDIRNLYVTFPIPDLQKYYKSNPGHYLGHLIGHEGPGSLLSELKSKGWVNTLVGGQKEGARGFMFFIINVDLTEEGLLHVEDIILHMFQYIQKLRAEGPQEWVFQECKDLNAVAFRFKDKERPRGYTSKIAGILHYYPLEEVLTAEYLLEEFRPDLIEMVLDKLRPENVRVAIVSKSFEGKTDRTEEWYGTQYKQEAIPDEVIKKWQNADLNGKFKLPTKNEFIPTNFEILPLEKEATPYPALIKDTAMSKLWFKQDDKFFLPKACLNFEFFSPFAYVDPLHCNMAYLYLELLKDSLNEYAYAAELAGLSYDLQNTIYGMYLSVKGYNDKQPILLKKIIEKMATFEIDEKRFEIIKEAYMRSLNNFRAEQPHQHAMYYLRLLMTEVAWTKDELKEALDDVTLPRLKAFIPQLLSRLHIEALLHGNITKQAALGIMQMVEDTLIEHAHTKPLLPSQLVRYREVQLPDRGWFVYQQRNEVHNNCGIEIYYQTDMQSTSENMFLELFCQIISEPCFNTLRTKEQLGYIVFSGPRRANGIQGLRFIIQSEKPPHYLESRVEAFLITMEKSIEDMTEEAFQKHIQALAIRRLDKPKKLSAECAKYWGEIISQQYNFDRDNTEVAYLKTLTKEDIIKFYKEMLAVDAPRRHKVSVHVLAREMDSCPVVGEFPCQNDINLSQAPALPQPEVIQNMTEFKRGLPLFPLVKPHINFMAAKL

[3] = Counterscreen for IDE inhibitors: Luminescence-based cell-based high throughput dose response assay to identify compounds that are cytotoxic to HEK cells. [Related pubchem assays: 434962 (Primary screen (IDE inhibitors in singlicate)), 449730 (Counterscreen (Cytotoxicity in triplicate)), 435028 (Confirmation (IDE inhibitors in triplicate)) …; format: functional; conditions: HEK293
[4] = target: T2, Corticotropin-releasing factor receptor 2/Corticotropin-releasing factor-binding protein (Homo sapiens, UniProt P24387+Q13324); test: activators of CRF receptor 2 with binding protein – uHTS hits, confirmation (AID 602473); format: functional; conditions: read-out: EC50_Mean
T2 sequence (Q13324 whole entry): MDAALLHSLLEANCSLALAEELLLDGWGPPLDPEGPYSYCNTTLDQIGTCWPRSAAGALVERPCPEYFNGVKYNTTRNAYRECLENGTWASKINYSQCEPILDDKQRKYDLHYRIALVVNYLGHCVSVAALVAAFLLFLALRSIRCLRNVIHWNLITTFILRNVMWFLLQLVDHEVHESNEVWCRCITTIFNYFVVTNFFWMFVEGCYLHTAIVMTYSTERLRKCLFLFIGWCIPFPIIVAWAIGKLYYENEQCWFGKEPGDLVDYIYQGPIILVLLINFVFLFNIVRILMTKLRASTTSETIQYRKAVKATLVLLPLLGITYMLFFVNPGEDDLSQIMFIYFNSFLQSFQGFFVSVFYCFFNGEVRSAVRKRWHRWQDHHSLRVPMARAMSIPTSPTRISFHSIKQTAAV
T2 sequence (P24387 whole entry): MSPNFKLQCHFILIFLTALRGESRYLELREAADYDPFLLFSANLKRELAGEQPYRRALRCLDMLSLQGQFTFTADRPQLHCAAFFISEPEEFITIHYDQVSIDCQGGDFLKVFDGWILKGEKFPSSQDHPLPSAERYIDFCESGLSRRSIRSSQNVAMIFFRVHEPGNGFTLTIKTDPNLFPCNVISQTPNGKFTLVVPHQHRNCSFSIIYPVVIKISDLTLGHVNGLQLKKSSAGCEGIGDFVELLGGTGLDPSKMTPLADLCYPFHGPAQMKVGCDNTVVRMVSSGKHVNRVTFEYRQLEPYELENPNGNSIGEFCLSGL

[5] = target: T3, Neuropeptide Y receptor type 2 (Homo sapiens, UniProt P49146); test: IC50 for human NPY-Y2 blockade – cell-based, counter-screen for NPY-Y1 antagonist project, dose response (AID 1278); format: functional
T3 sequence (P49146 whole entry): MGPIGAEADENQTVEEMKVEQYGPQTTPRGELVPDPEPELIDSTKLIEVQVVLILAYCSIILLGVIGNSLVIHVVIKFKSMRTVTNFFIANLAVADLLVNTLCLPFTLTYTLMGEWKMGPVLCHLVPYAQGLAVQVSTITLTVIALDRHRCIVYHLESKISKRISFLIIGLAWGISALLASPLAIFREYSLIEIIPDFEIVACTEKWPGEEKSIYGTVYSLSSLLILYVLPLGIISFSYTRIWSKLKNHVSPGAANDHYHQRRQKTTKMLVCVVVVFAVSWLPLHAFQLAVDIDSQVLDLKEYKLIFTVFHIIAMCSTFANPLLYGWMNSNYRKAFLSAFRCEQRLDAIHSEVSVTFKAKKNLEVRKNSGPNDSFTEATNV

[6] = target: T4, Streptokinase A (Streptococcus pyogenes serotype M1, UniProt P10520); test: viability-normalized secreted streptokinase activity reduction – plasminogen activation absorbance, OD405, dose response (AID 1914); format: functional, Streptococcus pyogenes M1 GAS;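 further: secreted streptokinase activity via plasminogen activation per viability signal from cell pellet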
T4 sequence (P10520 whole entry): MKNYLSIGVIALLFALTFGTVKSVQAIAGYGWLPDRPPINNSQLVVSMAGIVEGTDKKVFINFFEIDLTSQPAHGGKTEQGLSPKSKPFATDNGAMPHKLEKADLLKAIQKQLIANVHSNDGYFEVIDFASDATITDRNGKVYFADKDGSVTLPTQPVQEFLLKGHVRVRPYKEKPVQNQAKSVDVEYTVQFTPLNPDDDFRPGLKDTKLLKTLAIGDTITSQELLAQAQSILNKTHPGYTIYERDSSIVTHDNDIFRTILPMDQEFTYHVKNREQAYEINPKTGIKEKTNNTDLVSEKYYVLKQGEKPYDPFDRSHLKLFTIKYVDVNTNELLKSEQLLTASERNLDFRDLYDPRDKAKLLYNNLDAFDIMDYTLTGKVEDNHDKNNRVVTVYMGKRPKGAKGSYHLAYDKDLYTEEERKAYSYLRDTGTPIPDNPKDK

[7] = tested on: Streptococcus sp. 'group A'; test: Streptococcus pyogenes SK(-)GAS viability under kanamycin – luminescence, BacTiterGlo, confirmation, counter-screen for streptokinase expression inhibitor project, dose response (AID 1900); format: functional, organism-based
[8] = target: T5, Neuropeptide Y receptor type 1 (Homo sapiens, UniProt P25929); test: IC50 of human NPY-Y1 blockers – cell-based, dose response (AID 1277); format: functional
T5 sequence (P25929 whole entry): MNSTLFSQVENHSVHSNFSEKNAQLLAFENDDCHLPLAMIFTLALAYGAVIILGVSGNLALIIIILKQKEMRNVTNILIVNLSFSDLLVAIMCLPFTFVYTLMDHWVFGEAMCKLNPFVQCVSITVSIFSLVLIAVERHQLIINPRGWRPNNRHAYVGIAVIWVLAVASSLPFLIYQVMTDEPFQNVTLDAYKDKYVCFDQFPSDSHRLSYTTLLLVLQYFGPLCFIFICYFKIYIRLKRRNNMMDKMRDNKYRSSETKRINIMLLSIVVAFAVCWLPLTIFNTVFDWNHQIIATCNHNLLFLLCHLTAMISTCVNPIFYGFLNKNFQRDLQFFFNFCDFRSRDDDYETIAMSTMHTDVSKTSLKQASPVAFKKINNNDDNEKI

[9] = tested on: Streptococcus; test: GAS UMAA2166 growth inhibition – luminescence, BacTiterGlo, counter-screen for streptokinase expression inhibitor project, dose response (AID 1915); format: functional, organism-based;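 further: potency for reduction of bacterial viability or growth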
[10] = target: T6, Long-chain-fatty-acid--AMP ligase FadD28 (Mycobacterium tuberculosis, UniProt P9WQ59); test: Fluorescence polarization aasay to screen for inhibitors that compete for the binding of FadD28 to a bisubstrate Measured in Biochemical System Using Plate Reader - 2147-01_Inhibitor_Dose_CherryPick_Activity.; format: functional, Mycobacterium tuberculosis H37Rv
T6 sequence (P9WQ59 whole entry): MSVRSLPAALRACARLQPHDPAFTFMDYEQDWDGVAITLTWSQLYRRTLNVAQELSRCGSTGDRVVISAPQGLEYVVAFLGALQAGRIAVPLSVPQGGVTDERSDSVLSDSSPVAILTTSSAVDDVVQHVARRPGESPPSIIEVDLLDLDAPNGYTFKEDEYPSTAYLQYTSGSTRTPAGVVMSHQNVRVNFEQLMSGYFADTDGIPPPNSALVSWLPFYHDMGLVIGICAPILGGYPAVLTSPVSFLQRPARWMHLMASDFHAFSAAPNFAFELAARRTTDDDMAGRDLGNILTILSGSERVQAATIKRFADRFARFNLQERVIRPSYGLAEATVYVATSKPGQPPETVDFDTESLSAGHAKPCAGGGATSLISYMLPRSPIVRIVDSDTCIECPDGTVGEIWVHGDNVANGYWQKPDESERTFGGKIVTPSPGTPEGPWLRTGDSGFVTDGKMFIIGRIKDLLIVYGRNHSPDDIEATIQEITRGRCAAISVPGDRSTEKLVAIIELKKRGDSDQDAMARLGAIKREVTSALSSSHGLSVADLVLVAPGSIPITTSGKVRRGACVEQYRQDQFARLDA

[11] = target: FAD-linked sulfhydryl oxidase ALR (Homo sapiens, UniProt P55789); test: ALR-catalysed DTT oxidation blockers – biochemical, H2O2 detection, luminescence, cherry-pick, dose response (AID 493248)
[12] = viability of uninfected HEp-2 cells – cell-based, HTS, cytotoxicity control for RSV inhibitor project, dose response (AID 2410); format: functional; conditions: human respiratory syncytial virus
[13] = CCR5-tropic HIV-1 fusion blockers – cell-based, CCR5-tropic Env, dose response (AID 2279); format: functional
[14] = target: Genome polyprotein (dengue virus type 2, UniProt P29990); test: flavivirus cap methylation enzyme inhibition – biochemical, confirmation dose response, primary screen (AID 588689); format: functional
[15] = target: Cytochrome P450 2D6 (Homo sapiens, UniProt P10635); test: qHTS Assay for Inhibitors and Substrates of Cytochrome P450 2D6. [Related pubchem assays: 410 ]; format: ADME; conditions: read-out: Potency
Chain of Cytochrome P450 2D6 (P10635 whole entry): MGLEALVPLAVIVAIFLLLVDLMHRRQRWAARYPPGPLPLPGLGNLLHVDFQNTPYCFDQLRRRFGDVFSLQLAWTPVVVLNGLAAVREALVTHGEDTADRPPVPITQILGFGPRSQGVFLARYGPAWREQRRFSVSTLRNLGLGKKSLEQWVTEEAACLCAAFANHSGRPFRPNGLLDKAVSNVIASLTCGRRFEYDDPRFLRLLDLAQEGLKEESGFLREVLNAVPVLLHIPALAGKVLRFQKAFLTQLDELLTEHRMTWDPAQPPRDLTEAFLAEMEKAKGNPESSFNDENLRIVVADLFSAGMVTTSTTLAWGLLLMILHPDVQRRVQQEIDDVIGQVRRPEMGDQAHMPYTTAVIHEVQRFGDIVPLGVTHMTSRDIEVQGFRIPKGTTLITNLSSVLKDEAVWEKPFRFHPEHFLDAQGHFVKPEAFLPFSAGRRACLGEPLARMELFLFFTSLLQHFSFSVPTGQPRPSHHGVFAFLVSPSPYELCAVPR

Chain of FAD-linked sulfhydryl oxidase ALR (P55789 whole entry): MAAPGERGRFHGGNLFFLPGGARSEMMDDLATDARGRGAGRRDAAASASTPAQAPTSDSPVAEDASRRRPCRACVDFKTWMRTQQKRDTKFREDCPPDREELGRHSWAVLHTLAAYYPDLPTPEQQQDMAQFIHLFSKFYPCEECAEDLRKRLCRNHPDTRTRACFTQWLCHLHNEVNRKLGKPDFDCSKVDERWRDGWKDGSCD
Chain of Lysosomal acid glucosylceramidase (P04062 whole entry): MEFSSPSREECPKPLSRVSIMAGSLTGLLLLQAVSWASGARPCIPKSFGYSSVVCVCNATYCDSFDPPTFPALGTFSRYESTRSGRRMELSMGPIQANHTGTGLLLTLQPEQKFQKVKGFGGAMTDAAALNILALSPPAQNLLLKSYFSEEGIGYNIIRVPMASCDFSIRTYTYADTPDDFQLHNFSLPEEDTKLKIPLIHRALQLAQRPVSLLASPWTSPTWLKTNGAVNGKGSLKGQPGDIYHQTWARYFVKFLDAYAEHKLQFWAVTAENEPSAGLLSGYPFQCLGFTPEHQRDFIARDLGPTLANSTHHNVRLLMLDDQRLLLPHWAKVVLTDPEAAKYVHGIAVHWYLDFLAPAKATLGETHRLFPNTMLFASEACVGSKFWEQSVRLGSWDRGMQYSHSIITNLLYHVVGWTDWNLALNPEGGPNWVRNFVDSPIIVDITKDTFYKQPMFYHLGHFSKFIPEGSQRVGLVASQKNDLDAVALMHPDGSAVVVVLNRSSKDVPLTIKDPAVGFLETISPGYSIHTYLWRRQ
Chain of Genome polyprotein (P29990 2492-3391 limits assumed): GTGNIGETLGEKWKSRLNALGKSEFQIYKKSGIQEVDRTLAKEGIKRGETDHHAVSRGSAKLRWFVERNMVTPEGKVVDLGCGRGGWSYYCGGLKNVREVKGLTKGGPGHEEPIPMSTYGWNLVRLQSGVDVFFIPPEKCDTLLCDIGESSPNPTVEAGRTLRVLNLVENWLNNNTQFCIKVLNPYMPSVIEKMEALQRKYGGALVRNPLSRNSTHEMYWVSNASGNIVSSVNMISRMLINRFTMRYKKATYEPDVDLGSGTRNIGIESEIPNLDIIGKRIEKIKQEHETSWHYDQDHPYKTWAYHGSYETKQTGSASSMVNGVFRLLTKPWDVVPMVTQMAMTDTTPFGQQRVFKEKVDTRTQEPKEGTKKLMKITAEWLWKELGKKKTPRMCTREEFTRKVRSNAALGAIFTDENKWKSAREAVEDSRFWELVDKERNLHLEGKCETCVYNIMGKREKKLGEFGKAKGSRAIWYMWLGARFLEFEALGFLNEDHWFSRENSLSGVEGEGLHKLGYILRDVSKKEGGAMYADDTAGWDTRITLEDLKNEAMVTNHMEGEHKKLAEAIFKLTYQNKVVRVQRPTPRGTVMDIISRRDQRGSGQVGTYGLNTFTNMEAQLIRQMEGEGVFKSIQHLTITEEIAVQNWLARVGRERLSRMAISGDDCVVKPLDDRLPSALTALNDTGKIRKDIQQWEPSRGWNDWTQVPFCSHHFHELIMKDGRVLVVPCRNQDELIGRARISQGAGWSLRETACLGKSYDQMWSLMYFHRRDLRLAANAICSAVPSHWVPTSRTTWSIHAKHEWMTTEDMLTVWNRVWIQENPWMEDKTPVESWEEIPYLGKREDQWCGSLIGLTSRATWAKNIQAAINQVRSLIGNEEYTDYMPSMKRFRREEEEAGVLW

CC(CS(=O)(=O)c1cccc2cccnc12)N1CCCCC1 (stereo not given)
EC50 [1]: > 50 µM (not active)

CCN1/C(=C\C=C(C(C)=O)C(C)=O)Sc2ccccc21
IC50 [2]: 8.83 µM (active)
IC50 [3]: 33.9 µM (not active)
EC50 [4]: 4.9 µM (active)

COc1ccc(C(=O)/C(C#N)=N/Nc2cccc([N+](=O)[O-])c2)cc1
IC50 [5]: > 35 µM (not active)
EC50 [6]: > 150 µM (not active)
EC50 [7]: 22.8 µM (active)
IC50 [8]: > 35 µM (not active)
EC50 [9]: 94.3 µM (active)

O=C(O)c1cc(N/N=C/c2ccc(-c3ccccc3)cc2)ccc1Cl
AC50 [10]: 18.4 µM (active)
AC50 [11]: 1.83 µM (active)
CC50 [12]: 31.1 µM (active)
IC50 [13]: 11 µM (active)
IC50 [14]: 61.5 µM (active)

COc1ccc([C@@H]2CC(=O)c3c(O)cc(O)cc3O2)cc1O [HESPERETIN]
AC50 [15]: 39.8 µM (inconclusive)
